In general, IC50 refers to the midpoint of a concentration-inhibition curve.

The test system of one experiment is L. major amastigote. Briefly: L. major amastigote assay. It counts as cell-based. Conditions: Leishmania major.
The next experiment concerns HepG2 cells. The experiment can be described thus: HepG2 cell toxicity (MTT) assay. It counts as cell-based. Conditions: Homo sapiens, HepG2, 48 h. The protocol:
Then 2 μL of DMSO (control) or different concentrations of drugs prepared from 200× DMSO stocks were added to the cultures. […] All experiments were repeated thrice in independent studies where each dose was administered in duplicate (total n=6). HepG2 Cell Toxicity Assay. The 384 well MTT cytotoxicity assay is a modification of the MTT method described by Ferrari et al. optimized for 384-well throughput, with modifications described below.
HepG2 Cell Toxicity assay. The 384 well MTT cytotoxicity assay is a modification of the MTT method described by Ferrari et al.^1 ENREF—26_ENREF—26_ENREF—26 optimized for 384 well throughput. […] 4.25 μL of diluted test compound was then added to the 38.3 μL of media in each well providing a 10 fold final dilution of compound. […] After a 48 hour incubation period, 8 μL of a 1.5 mg/ml solution of MTT diluted in complete MEM media was added to each well. All plates were subsequently incubated in the dark for 1 hour at room temperature. After incubation, the media and drugs in each well was removed by shaking plate over sink, the plates are then left to dry in hood for 15 minutes. […] Plates are put on a 3-D rotator for 15-30 minutes. Absorbance was determined in all wells using a Tecan iControl 1.6 Infinite plate reader.

In another experiment the test system is L. major promastigote. The experiment can be described thus: L. major promastigote assay. It counts as cell-based. Conditions: Leishmania major.
The next experiment concerns P. falciparum W2. Briefly: P. falciparum W2 assay. The note with it: Plasmodium falciparum; strain W2; read-out: P. falciparum W2 (EC50). The class given is cell-based.
The subject of the next experiment is P. falciparum C235. Briefly: P. falciparum C235 assay. It counts as cell-based. The note with it: Plasmodium falciparum, read-out: P. falciparum C235 (EC50).
Another experiment deals with P. falciparum D6. Briefly: P. falciparum D6 assay. The class given is cell-based. The note with it: Plasmodium falciparum; strain D6.
The next experiment concerns T. cruzi. Briefly: T. cruzi growth inhibition. Conditions: Trypanosoma cruzi; for inhibition at 10 µM: read-out: T. cruzi % inh at 10 μM. The class given is cell-based, Trypanosoma cruzi.
Experiment [1] deals with T. brucei brucei Lister 427. The experiment can be described thus: Trypanosome replication assay. Conditions: 48 h, 48 h, values ±7%. The class given is cell-based, Trypanosoma brucei brucei.
Setting [2] is: MTT, 48 hour incubation, read-out: HepG2 IC50.
The mark [3] stands for this setting: Trypanosoma brucei, concentration giving 50% inhibition of growth of T brucei brucei Lister 427 cells, read-out: Tbb EC50.

The structures appear in SMILES notation. Where a name gives a salt, the structure may show the parent alone. Read-outs that look alike come from different tables or passages of the source.

Take `CS(=O)(=O)c1cccc(-c2ccc3ncnc(Nc4ccc(OCc5cccc(F)c5)c(Cl)c4)c3c2)c1` [Compound 10u, N-(3-Chloro-4-((3-fluorobenzyl)oxy)phenyl)-6-(3-(methylsulfonyl)phenyl)quinazolin-4-amine]: the EC50 in the experiment with L. major amastigote was 4.7 µM; with L. major promastigote, 3.5 µM; with P. falciparum W2, 1300 nM; in the experiment on P. falciparum C235 (strain C235), 620 nM; with P. falciparum D6 it was 520 nM; in the experiment with T. cruzi, 5 µM. Moreover, the EC50 in experiment [1] (Trypanosoma brucei, read-out: Tbb EC50, concentration giving 50% inhibition of growth of T brucei brucei Lister 427 cells) was found to be 3210 nM; in experiment [1] (read-out: Tbb EC50, concentration giving 50% inhibition of growth of T brucei brucei Lister 427 cells, listed as NEU-633), 3200 nM. In addition, in the experiment on HepG2 cells (setting [2]), the 50% inhibitory concentration (IC50) is greater than 15 µM.
For `CN(C)S(=O)(=O)c1ccccc1-c1ccc2ncnc(Nc3ccc(OCc4cccc(F)c4)c(Cl)c3)c2c1` [Compound 10v, 2-(4-((3-Chloro-4-((3-fluorobenzyl)oxy)phenyl)amino)-quinazolin-6-yl)-N,N-dimethylbenzenesulfonamide], the EC50 was greater than 15 µM in the experiment with L. major amastigote; 2.8 µM with L. major promastigote; 1800 nM in the experiment on P. falciparum W2; 1100 nM in the experiment on P. falciparum C235; 820 nM with P. falciparum D6; 1.5 µM in the experiment on T. cruzi. Moreover, the EC50 in experiment [1] (setting [3]) was 1040 nM; in experiment [1] (concentration giving 50% inhibition of growth of T brucei brucei Lister 427 cells, listed as NEU-619, read-out: Tbb EC50), 1000 nM. Also, the IC50 in the experiment with HepG2 cells (read-out: HepG2 IC50, MTT, 48 hour incubation) is greater than 15 µM.
`O=S(=O)(c1ccc(-c2ccc3ncnc(Nc4ccccc4)c3c2)cc1)N1CCOCC1` [Compound 20a, 6-(4-(Morpholinosulfonyl)phenyl)-N-phenylquinazolin-4-amine Hydrochloride]: the EC50 in the experiment on L. major amastigote stood at 4.1 µM; in the experiment on L. major promastigote, 4.1 µM; in the experiment on P. falciparum W2, 4100 nM; with P. falciparum C235 (strain C235), 4100 nM; in the experiment on P. falciparum D6, 4100 nM; in experiment [1] (setting [3]), 1440 nM. The EC50 in experiment [1] (concentration giving 50% inhibition of growth of T brucei brucei Lister 427 cells, listed as NEU-548, Hydrochloride, read-out: Tbb EC50) is 1400 nM. The IC50 in the experiment with HepG2 cells (setting [2]) was greater than 3 µM. Also, the inhibition at 10 µM in the experiment on T. cruzi amounted to 13%.
On to `Cc1ccc(Nc2ncnc3ccc(-c4ccc(S(=O)(=O)N5CCOCC5)cc4)cc23)cc1` [Compound 20b, 6-(4-(Morpholinosulfonyl)phenyl)-N-(p-tolyl)quinazolin-4-amine Hydrochloride], for which the EC50 was greater than 15 µM with L. major amastigote; 0.45 µM with L. major promastigote; 6200 nM with P. falciparum W2; 2800 nM with P. falciparum C235 (strain C235); 1700 nM in the experiment with P. falciparum D6; 1150 nM in experiment [1] (setting [3]). The EC50 in experiment [1] (concentration giving 50% inhibition of growth of T brucei brucei Lister 427 cells, listed as NEU-549, Hydrochloride, read-out: Tbb EC50) amounted to 1200 nM. In addition, in the experiment with HepG2 cells (setting [2]), the IC50 is greater than 15 µM. In the experiment on T. cruzi, the inhibition at 10 µM came out at 59%.
In the case of `O=S(=O)(c1ccc(-c2ccc3ncnc(Nc4ccc(O)c(Cl)c4)c3c2)cc1)N1CCOCC1` [Compound 20c, 2-Chloro-4-((6-(4-(morpholinosulfonyl)phenyl)quinazolin-4-yl)amino)phenol Hydrochloride], the EC50 is greater than 15 µM in the experiment with L. major amastigote; greater than 15 µM with L. major promastigote; 19000 nM in the experiment with P. falciparum W2; 19000 nM in the experiment on P. falciparum C235 (strain C235); 12000 nM with P. falciparum D6; 1060 nM in experiment [1] (setting [3]). In experiment [1] (concentration giving 50% inhibition of growth of T brucei brucei Lister 427 cells, listed as NEU-550, Hydrochloride, read-out: Tbb EC50), the EC50 worked out at 1100 nM. In addition, in the experiment with HepG2 cells (setting [2]), the half-maximal inhibitory concentration (IC50) is greater than 15 µM. Further, in the experiment on T. cruzi, the inhibition at 10 µM is 14%.
`COc1ccc(Nc2ncnc3ccc(-c4ccc(S(=O)(=O)N5CCOCC5)cc4)cc23)cc1Cl` [Compound 20d, N-(3-Chloro-4-methoxyphenyl)-6-(4-(morpholinosulfonyl)-phenyl)quinazolin-4-amine Hydrochloride]: the EC50 came out at 4.8 µM in the experiment with L. major amastigote; 0.83 µM in the experiment on L. major promastigote; 1700 nM in the experiment with P. falciparum W2; 1200 nM in the experiment with P. falciparum C235 (strain C235); 810 nM with P. falciparum D6; 820 nM in experiment [1] (setting [3]). In addition, the half-inhibitory concentration (IC50) in the experiment on HepG2 cells (setting [2]) was greater than 15 µM. In the experiment on T. cruzi, the inhibition at 10 µM stood at 43%.
As for `O=S(=O)(c1ccc(-c2ccc3ncnc(Nc4ccc(OCc5ccccc5)c(Cl)c4)c3c2)cc1)N1CCOCC1` [Compound 20e, N-(4-(Benzyloxy)-3-chlorophenyl)-6-(4-(morpholinosulfonyl)phenyl)quinazolin-4-amine Hydrochloride], the EC50 is greater than 15 µM in the experiment on L. major amastigote; 0.47 µM in the experiment with L. major promastigote; 720 nM with P. falciparum W2; 450 nM with P. falciparum C235 (strain C235); 250 nM with P. falciparum D6; 1350 nM in experiment [1] (setting [3]). Further, the EC50 in experiment [1] (concentration giving 50% inhibition of growth of T brucei brucei Lister 427 cells, listed as NEU-551, Hydrochloride, read-out: Tbb EC50) is 1400 nM. In the experiment with HepG2 cells (setting [2]), the IC50 is greater than 15 µM. Besides, in the experiment with T. cruzi, the inhibition at 10 µM worked out at 9%.
In the case of `O=S(=O)(c1ccc(-c2ccc3ncnc(Nc4ccc(OCc5cccc(Br)c5)c(Cl)c4)c3c2)cc1)N1CCOCC1` [Compound 20f, N-(4-((3-Bromobenzyl)oxy)-3-chlorophenyl)-6-(4-(morpholinosulfonyl)phenyl)quinazolin-4-amine Hydrochloride], the EC50 is 0.47 µM in the experiment with L. major amastigote; 14 µM in the experiment on L. major promastigote; 440 nM with P. falciparum W2; 410 nM in the experiment with P. falciparum C235 (strain C235); 200 nM in the experiment on P. falciparum D6; 680 nM in experiment [1] (setting [3]). Further, the concentration for half-maximal inhibition (IC50) in the experiment on HepG2 cells (setting [2]) is greater than 15 µM. For the same molecule, the inhibition at 10 µM in the experiment with T. cruzi worked out at 7%.
For `O=S(=O)(c1ccc(-c2ccc3ncnc(Nc4ccc(OCc5cccc(Cl)c5)c(Cl)c4)c3c2)cc1)N1CCOCC1` [Compound 20g, N-(3-Chloro-4-((3-chlorobenzyl)oxy)phenyl)-6-(4-(morpholinosulfonyl)phenyl)quinazolin-4-amine Hydrochloride], the EC50 was 1.1 µM with L. major amastigote; 15 µM in the experiment with L. major promastigote; 660 nM in the experiment with P. falciparum W2; 330 nM in the experiment on P. falciparum C235 (strain C235); 230 nM with P. falciparum D6; 660 nM in experiment [1] (setting [3]). Further, the 50% inhibitory concentration (IC50) with HepG2 cells (setting [2]) was greater than 15 µM. Moreover, the inhibition at 10 µM with T. cruzi amounted to 4%.
As to `O=S(=O)(c1ccc(-c2ccc3ncnc(Nc4ccc(OCc5ccc(F)cc5)c(Cl)c4)c3c2)cc1)N1CCOCC1` [Compound 20j, N-(3-Chloro-4-((4-fluorobenzyl)oxy)phenyl)-6-(4-(morpholinosulfonyl)phenyl)quinazolin-4-amine Hydrochloride], the EC50 in the experiment on L. major amastigote was greater than 15 µM; with L. major promastigote, 1.7 µM; in the experiment with P. falciparum W2 it was 360 nM; with P. falciparum C235 (strain C235), 240 nM; in the experiment on P. falciparum D6, 170 nM; in experiment [1] (setting [3]), 1340 nM. Moreover, the EC50 in experiment [1] (concentration giving 50% inhibition of growth of T brucei brucei Lister 427 cells, listed as NEU-566, Hydrochloride, read-out: Tbb EC50) stood at 1300 nM. Further, the concentration for half-maximal inhibition (IC50) in the experiment on HepG2 cells (setting [2]) is greater than 15 µM. In the experiment on T. cruzi, the inhibition at 10 µM is -1%.
As to `COc1cccc(COc2ccc(Nc3ncnc4ccc(-c5ccc(S(=O)(=O)N6CCOCC6)cc5)cc34)cc2Cl)c1` [Compound 20k, N-(3-Chloro-4-((3-methoxybenzyl)oxy)phenyl)-6-(4-(morpholinosulfonyl)phenyl)quinazolin-4-amine Hydrochloride], the EC50 in the experiment with L. major amastigote was 15 µM; with L. major promastigote, 15 µM; with P. falciparum W2 it was 690 nM; with P. falciparum C235 (strain C235), 350 nM; in the experiment with P. falciparum D6 it was 230 nM; in experiment [1] (setting [3]) it was 1430 nM. Moreover, the EC50 in experiment [1] (concentration giving 50% inhibition of growth of T brucei brucei Lister 427 cells, listed as NEU-567, Hydrochloride, read-out: Tbb EC50) worked out at 1400 nM. Further, the IC50 with HepG2 cells (setting [2]) is greater than 15 µM. The inhibition at 10 µM with T. cruzi amounted to 5%.
For `O=S(=O)(c1ccc(-c2ccc3ncnc(Nc4ccc(OCc5ccc(C(F)(F)F)c(F)c5)c(Cl)c4)c3c2)cc1)N1CCOCC1` [Compound 20l, N-(3-Chloro-4-((3-fluoro-4-(trifluoromethyl)benzyl)oxy)-phenyl)-6-(4-(morpholinosulfonyl)phenyl)quinazolin-4-amine Hydrochloride], the EC50 worked out at 2.5 µM in the experiment on L. major amastigote; 14 µM with L. major promastigote; 1110 nM in the experiment on P. falciparum W2; 640 nM with P. falciparum C235 (strain C235); 570 nM in the experiment on P. falciparum D6; 540 nM in experiment [1] (setting [3]). Besides, the IC50 in the experiment with HepG2 cells (setting [2]) is greater than 15 µM. In addition, in the experiment with T. cruzi, the inhibition at 10 µM came to 21%.

The record behind these values is patent US20150259331A1, “PROTOZOAN PARASITE GROWTH INHIBITORS” (Northeastern University, priority 2014, published 2015).
